Test results from patent US12447156B2, “Treating progressive familial intrahepatic cholestasis (PFIC) with IBAT inhibitors” (ALBIREO AB, priority 2020, dated 2025).
Marks after values point to notes of the source that are not given here.

Tests used:
Format in all cases: in vivo, human
[1] = tested on: patients with PFIC with prior PEBD surgery; experiment: PEDFIC 1/2 post hoc subgroup: patients with prior partial external biliary diversion (PEBD); parameters: key: Y: sBAs reduced ≥70% or levels ≤70 μmol/L at last assesment; N, no; conditions: Patient 10 (prior PEBD, PFIC2; PEDFIC 2 only, 120 μg/kg/d; 35 weeks exposure)
Experimental: (§1) One surgical treatment option for patients with PFIC is partial external biliary diversion (PEBD), which can be used to reduce bile acid levels in patients with medically refractory pruritus. However, PEBD is not successful in all patients. […] This post hoc subgroup analysis evaluated the safety and efficacy of odevixibat in patients enrolled in the PEDFIC studies who had PEBD surgery prior to study entry.
(§2) In the double-blind PEDFIC 1 study, children with PFIC1 or PFIC2 were randomized to placebo or 40 or 120 μg/kg/day odevixibat for 24 weeks. In PEDFIC 2, an ongoing, open-label extension study, patients from PEDFIC 1 or newly enrolled patients with any PFIC subtype receive odevixibat 120 μg/kg/day. In both PEDFIC 1 and PEDFIC 2, eligible patients had elevated sBAs and significant pruritus at screening. Changes over time in sBA levels and observer-reported pruritus (range: 0-4; higher scores indicate worse symptoms), sleep parameters, and quality of life (QoL; assessed with the Pediatric Quality of Life Inventory [PedsQL]) were evaluated in the subgroup of patients from PEDFIC 1 and/or PEDFIC 2 with a medical history of PEBD surgery performed prior to study enrollment.

[2] = tested on: patients with PFIC3 or PFIC6; experiment: PEDFIC 2: efficacy and safety in patients with PFIC3 or PFIC6; conditions: for Common TEAEs by preferred term: ALT increased / Common TEAEs by preferred term: INR increased / Common TEAEs by preferred term: Total bilirubin increased / Common TEAEs by preferred term: Vitamin D deficiency / Mild TEAEs / Moderate TEAEs / Serious TEAEs / Severe TEAEs / TEAEs / TEAEs leading to discontinuation: 120 μg/kg once daily
Source text: In PEDFIC 2, eligible patients are enrolled into one of 2 cohorts, based on the following criteria: Cohort 1 includes pediatric patients with PFIC1 or PFIC2 from PEDFIC 1 and cohort 2 includes patients of any age with any PFIC type; these are newly enrolled patients. In both cohorts, eligible patients are those with genetically confirmed PFIC, elevated serum bile acids (≥100 μmol/L), and significant pruritus (i.e., itching or scratching score of ≥2 per patient/caregiver report using the PRUCISION instrument). PEDFIC 2 includes a 72-week treatment period in which all patients receive oral, once-daily odevixibat 120 μg/kg.
Change from baseline in serum bile acids, pruritus, hepatic biochemical parameters, growth, and sleep; serum bile acid response (i.e., serum bile acids reduced ≥70% or levels ≤70 μmol/L); proportion of positive pruritus assessments (PPAs) at the patient level (i.e., pruritus score ≤1 or a ≥1-point drop from baseline); and treatment-emergent adverse events (TEAEs). Patient pruritus and sleep were evaluated twice daily by caregivers using the validated PRUCISION scale; pruritus responses range from 0 to 4, with higher scores indicating worse symptom.

[3] = tested on: patients with PFIC with prior PEBD surgery; experiment: PEDFIC 1/2 post hoc subgroup: patients with prior partial external biliary diversion (PEBD); parameters: key: Y: sBAs ≤70 μmol/L or reduced ≥70% at last assessment; N, no
Experimental: as §1, §2

[4] = 6 patients with PFIC3 or PFIC6, 120 μg/kg
[5] = patient with PFIC6, N=1, oral once-daily 120 μg/kg
[6] = patients with PFIC3, N=4, oral once-daily 120 μg/kg

CCCCC1(CCCC)CN(c2ccccc2)c2cc(SC)c(OCC(=O)N[C@@H](C(=O)N[C@@H](CC)C(=O)O)c3ccc(O)cc3)cc2S(=O)(=O)N1 [Odevixibat, 1,1-dioxo-3,3-dibutyl-5-phenyl-7-methylthio-8-(N-{(R)-α-[N-((S)-1-carboxypropyl)carbamoyl]-4-hydroxybenzyl}carbamoylmethoxy)-2,3,4,5-tetrahydro-1,2,5-benzothiadiazepine]
sBA Responder? [1]: Y | patients who met criteria for serum bile acid response at the last assessment ([2]; 2 with PFIC3 and 1 with PFIC6, of 6 patients): Three | reductions in pruritus score from baseline to last assessment [2, 4]: all but 1 patient (PFIC3) had reductions in pruritus score | reductions in serum bile acids from baseline to last assessment [2, 4]: all patients with PFIC3 or PFIC6 had reductions in serum bile acids | Common TEAEs by preferred term: ALT increased ([2]; Patient 1 (PFIC3)): 0 | Common TEAEs by preferred term: INR increased ([2]; Patient 1 (PFIC3)): 0 | Common TEAEs by preferred term: Total bilirubin increased ([2]; Patient 1 (PFIC3)): 0 | Common TEAEs by preferred term: Vitamin D deficiency ([2]; Patient 1 (PFIC3)): 0 | Mild TEAEs ([2]; Patient 1 (PFIC3)): 0 | Moderate TEAEs ([2]; Patient 1 (PFIC3)): 0 | Serious TEAEs ([2]; Patient 1 (PFIC3)): 0 | Severe TEAEs ([2]; Patient 1 (PFIC3)): 0 | TEAEs ([2]; Patient 1 (PFIC3)): 0 | TEAEs leading to discontinuation ([2]; Patient 1 (PFIC3)): 0 | Common TEAEs by preferred term: ALT increased ([2]; Patient 2 (PFIC3)): 0 | Common TEAEs by preferred term: INR increased ([2]; Patient 2 (PFIC3)): 1 | Common TEAEs by preferred term: Total bilirubin increased ([2]; Patient 2 (PFIC3)): 1 | Common TEAEs by preferred term: Vitamin D deficiency ([2]; Patient 2 (PFIC3)): 0 | Mild TEAEs ([2]; Patient 2 (PFIC3)): 1 | Moderate TEAEs ([2]; Patient 2 (PFIC3)): 2 | Serious TEAEs ([2]; Patient 2 (PFIC3)): 0 | Severe TEAEs ([2]; Patient 2 (PFIC3)): 0 | TEAEs ([2]; Patient 2 (PFIC3)): 3 | TEAEs leading to discontinuation ([2]; Patient 2 (PFIC3)): 0 | Common TEAEs by preferred term: ALT increased ([2]; Patient 3 (PFIC3)): 1 | Common TEAEs by preferred term: INR increased ([2]; Patient 3 (PFIC3)): 1 | Common TEAEs by preferred term: Total bilirubin increased ([2]; Patient 3 (PFIC3)): 2 | Common TEAEs by preferred term: Vitamin D deficiency ([2]; Patient 3 (PFIC3)): 0 | Mild TEAEs ([2]; Patient 3 (PFIC3)): 0 | Moderate TEAEs ([2]; Patient 3 (PFIC3)): 4 | Serious TEAEs ([2]; Patient 3 (PFIC3)): 0 | Severe TEAEs ([2]; Patient 3 (PFIC3)): 1 | TEAEs ([2]; Patient 3 (PFIC3)): 5 | TEAEs leading to discontinuation ([2]; Patient 3 (PFIC3)): 0 | Common TEAEs by preferred term: ALT increased ([2]; Patient 4 (PFIC3)): 1 | Common TEAEs by preferred term: INR increased ([2]; Patient 4 (PFIC3)): 0 | Common TEAEs by preferred term: Total bilirubin increased ([2]; Patient 4 (PFIC3)): 0 | Common TEAEs by preferred term: Vitamin D deficiency ([2]; Patient 4 (PFIC3)): 1 | Mild TEAEs ([2]; Patient 4 (PFIC3)): 2 | Moderate TEAEs ([2]; Patient 4 (PFIC3)): 0 | Serious TEAEs ([2]; Patient 4 (PFIC3)): 0 | Severe TEAEs ([2]; Patient 4 (PFIC3)): 3 | TEAEs ([2]; Patient 4 (PFIC3)): 5 | TEAEs leading to discontinuation ([2]; Patient 4 (PFIC3)): 0 | Common TEAEs by preferred term: ALT increased ([2]; Patient 5 (PFIC3)): 0 | Common TEAEs by preferred term: INR increased ([2]; Patient 5 (PFIC3)): 0 | Common TEAEs by preferred term: Total bilirubin increased ([2]; Patient 5 (PFIC3)): 0 | Common TEAEs by preferred term: Vitamin D deficiency ([2]; Patient 5 (PFIC3)): 2 | Mild TEAEs ([2]; Patient 5 (PFIC3)): 3 | Moderate TEAEs ([2]; Patient 5 (PFIC3)): 0 | Serious TEAEs ([2]; Patient 5 (PFIC3)): 0 | Severe TEAEs ([2]; Patient 5 (PFIC3)): 0 | TEAEs ([2]; Patient 5 (PFIC3)): 3 | TEAEs leading to discontinuation ([2]; Patient 5 (PFIC3)): 0 | Common TEAEs by preferred term: ALT increased ([2]; Patient 6 (PFIC6)): 0 | Common TEAEs by preferred term: INR increased ([2]; Patient 6 (PFIC6)): 0 | Common TEAEs by preferred term: Total bilirubin increased ([2]; Patient 6 (PFIC6)): 0 | Common TEAEs by preferred term: Vitamin D deficiency ([2]; Patient 6 (PFIC6)): 0 | Mild TEAEs ([2]; Patient 6 (PFIC6)): 1 | Moderate TEAEs ([2]; Patient 6 (PFIC6)): 0 | Serious TEAEs ([2]; Patient 6 (PFIC6)): 0 | Severe TEAEs ([2]; Patient 6 (PFIC6)): 0 | TEAEs ([2]; Patient 6 (PFIC6)): 1 | TEAEs leading to discontinuation ([2]; Patient 6 (PFIC6)): 0 | % of days needing help falling asleep, change from baseline to weeks 34-36 [2, 5]: −21^a % | % of days needing soothing, change from baseline to weeks 34-36 [2, 5]: −36^a % | % of days sleeping with caregiver, change from baseline to weeks 34-36 [2, 5]: 0^a % | % of days with bleeding associated with scratching, change from baseline to weeks 34-36 [2, 5]: 0^a % | Height Z score, change from baseline to week 36 [2, 5]: 0.1 | Pruritus score, change from baseline to weeks 34-36 [2, 5]: −1.8^a | Serum ALT, change from baseline to week 36 [2, 5]: 89 U/L | Serum bile acids, change from baseline to week 36 [2, 5]: -78 µmol/L | Total bilirubin, change from baseline to week 36 [2, 5]: -83 µmol/L | Weight Z score, change from baseline to week 36 [2, 5]: 0.5 | % of days needing help falling asleep, mean (SE) change from baseline to weeks 34-36 [2, 6]: −29 (24)^a % | % of days needing soothing, mean (SE) change from baseline to weeks 34-36 [2, 6]: −28 (21)^a % | % of days sleeping with caregiver, mean (SE) change from baseline to weeks 34-36 [2, 6]: −27 (22)^a % | % of days with bleeding associated with scratching, mean (SE) change from baseline to weeks 34-36 [2, 6]: 6 (6)^a % | Height Z score, mean (SE) change from baseline to week 36 [2, 6]: 0.2 (0.2) | Pruritus score, mean (SE) change from baseline to weeks 34-36 [2, 6]: −1.6 (0.4)^a | Serum ALT, mean (SE) change from baseline to week 36 [2, 6]: 67 (21) U/L | Serum bile acids, mean (SE) change from baseline to week 36 [2, 6]: −91 (37) μmol/L | Total bilirubin, mean (SE) change from baseline to week 36 [2, 6]: 18 (13) μmol/L | Weight Z score, mean (SE) change from baseline to week 36 [2, 6]: 0.1 (0.4) | patients who experienced any TEAE ([2]; patients with PFIC3 or PFIC6): 5 of 6 | serious TEAEs, TEAEs leading to discontinuation, or deaths ([2]; patients with PFIC3 or PFIC6): no serious TEAEs, TEAEs leading to discontinuation, or deaths | tolerability ([2]; patients with PFIC3 or PFIC6, up to the data cutoff in PEDFIC 2): generally well tolerated | positive pruritus assessments (PPAs) ([2]; weeks 0-22, 1 additional patient with PFIC3): 99% | positive pruritus assessments (PPAs) ([2]; weeks 0-36, 5 patients with available data (4 with PFIC3, 1 with PFIC6)): ≥ 85% | sBA Responder? ([3]; Patient 1 (prior PEBD, PFIC2; PEDFIC 1 placebo, PEDFIC 2 120 μg/kg/d; 42 weeks exposure)): N | sBA Responder? ([3]; Patient 2 (prior PEBD, PFIC1; PEDFIC 1 placebo, PEDFIC 2 120 μg/kg/d; 35 weeks exposure)): N | sBA Responder? ([3]; Patient 3 (prior PEBD, PFIC1; PEDFIC 1 40 μg/kg/d, PEDFIC 2 120 μg/kg/d; 44 weeks exposure)): N | sBA Responder? ([3]; Patient 4 (prior PEBD, PFIC1; PEDFIC 1 40 μg/kg/d, PEDFIC 2 120 μg/kg/d; 55 weeks exposure)): N | sBA Responder? ([3]; Patient 5 (prior PEBD, PFIC2; 120 μg/kg/d in PEDFIC 1 and 2; 53 weeks exposure)): N | sBA Responder? ([3]; Patient 6 (prior PEBD, PFIC2; 120 μg/kg/d in PEDFIC 1 and 2; 44 weeks exposure)): N | sBA Responder? ([3]; Patient 7 (prior PEBD, PFIC2; 120 μg/kg/d in PEDFIC 1 and 2; 54 weeks exposure, discontinued)): N | sBA Responder? ([3]; Patient 8 (prior PEBD, PFIC1; 120 μg/kg/d in PEDFIC 1 and 2; 47 weeks exposure)): N | sBA Responder? ([3]; Patient 9 (prior PEBD, PFIC1; PEDFIC 2 only, 120 μg/kg/d; 25 weeks exposure)): N
